Measured values as given in patent publication US7510825B2, “Kits and methods for detection of apoptotic cells” (NST NeuroSurvival Technologies Ltd, priority 2000, dated 2009).

How the values were obtained:
Assay type in all cases: cell-based
[1] = tested on: C26 colon carcinoma cells; assay: Staining by DDC of C26 colon carcinoma cells treated with BiCNU, fluorescent microscopy
Experimental: For microscopic analysis the concentration of cells should be within 1-2×10^7/ml. […] If fixation is needed, it should be performed after DDC staining. • 1. Adjusting the cells to 1-2×10^7/ml in buffer. • 2. Transferring 96 μl from the cell suspension to an eppendorf and staining the cells by adding 4 μl from the DDC solution. Incubating for 10-40 minutes at RT protected from light. • 3. A double labeling could be conducted with PI, if desired. In such a case, 1 μl is added from the PI solution. • 4, Placing the cell suspension on a glass slide. Covering the cells with a glass coverslip. Alternatively, for analyzing adherent cells, cells may grow directly on coverslip. Staining the cells by incubation with DDC (4 μl of DDC/96 μl buffer reaction) or 10-40 minutes and PI (1 μl). Covering the slide with a coverslip and visualizing the cells. […] Observing the cells under fluorescent or confocal microscope equipped with the appropriate UV filter (excitation at 360-370 nm, band pass, and emission at 420 nm, barrier filter. Using a Triple filter (Hoechst/FITC/Texas Red) allows concomitant observation of both DDC and PI. Quantitative Assay for DDC Accumulation using Fluorescene Spectroscopy
26 colon carcinoma cells were treated with 0.5 mM BiCNU for 2 hr and stained with DDC (as detailed in the DDC protocols IIIC). Cells were analyzed by fluorescent microscope under a UV filter.

[2] = tested on: Jurkat cells (T-cell leukemia, human); assay: Binding of DDC and PI to Jurkat cells treated with anti-Fas antibody, FACS; settings: anti-Fas antibody 0.1 μg/ml for 180 minutes
Experimental: a. Non Adherent Cells • 1. Inducing cells to undergo apoptosis. A negative control should be prepared by incubating cells in the absence of apoptosis induction agent. • 2. Washing the cells and adjusting the number of cells to 1×10^7/ml in PBS. • 3. Transferring 30 μl from the cell suspension to a suitable test tube for FACS analysis. • 4. Adding 260 μl of PBS and 5 μl of DDC to the tube and incubating for 15 minutes at room temperature (RT), protected from light. • 5. Adding 5 μl of Propidium Iodide (PI) and perform FACS analysis.
Analyzing DDC accumulation by flow cytometry using FACS apparatus that includes a UV laser. For DDC analysis: the UV detector excitation is at 356 nm and the emission is at 530 nm with a band pass of […]. […] The population should be separated into three groups: live cells will show a low level of fluorescence (background), apoptotic cells will show higher UV fluorescence and necrotic cells will show both red and higher UV fluorescence.
Jurkat cells (T-cell leukemia, human) were treated with anti-Fas antibody (0.1 μg/ml) for 180 minutes, Following incubation the cells were washed and stained with DDC (as detailed in DDC protocols, IIIA). […] Following incubation with anti-Fas antibody, most of the cells shifted to the lower right section (AII, EA) of higher fluorescence value, indicating increased staining with DDC. […]

[3] = tested on: C26 colon carcinoma cells; assay: Time course of DDC binding to C26 colon carcinoma cells treated with BiCNU; settings: 0.5 mM BiCNU for 2 hr
Experimental: For microscopic analysis the concentration of cells should be within 1-2×10^7/ml. […] If fixation is needed, it should be performed after DDC staining. • 1. Adjusting the cells to 1-2×10^7/ml in buffer. • 2. Transferring 96 μl from the cell suspension to an eppendorf and staining the cells by adding 4 μl from the DDC solution. Incubating for 10-40 minutes at RT protected from light. • 3. A double labeling could be conducted with PI, if desired. In such a case, 1 μl is added from the PI solution. • 4, Placing the cell suspension on a glass slide. Covering the cells with a glass coverslip. Alternatively, for analyzing adherent cells, cells may grow directly on coverslip. Staining the cells by incubation with DDC (4 μl of DDC/96 μl buffer reaction) or 10-40 minutes and PI (1 μl). Covering the slide with a coverslip and visualizing the cells. If desired, at that point the cells can be washed and fixed in 1% formaldehyde before visualization. Mounting should be done in a solution of 50% glycerol/PBS (v/v). • 5. Observing the cells under fluorescent or confocal microscope equipped with the appropriate UV filter (excitation at 360-370 nm, band pass, and emission at 420 nm, barrier filter. Using a Triple filter (Hoechst/FITC/Texas Red) allows concomitant observation of both DDC and PI. Quantitative Assay for DDC Accumulation using Fluorescene Spectroscopy […]

[4] = tested on: red blood cells (RBC); assay: Selective binding of DDC to activated red blood cells, flow cytometry; settings: DDC 500 μM
Experimental: Activation of intact RBC, was induced by a combined treatment with N-ethylmaleimide (NEM) and calcium ionophore, in the presence of Ca 2+.
Fresh RBC were obtained, diluted to 0.1 of their initial volume with buffer A (143 mM NaCl; 2 mM KCl; 0.1% Glucose; 10 mM NaH2PO4; pH=7.4), and washed 4 times in the above buffer. Cells were then re-suspended in buffer B (55 mM NaCl; 90 mM KCl, 0.1% glucose, 10 mM HEPES; pH=7.4). These cells were thereafter used as control cells. For activation, the cells were treated for 15-60 min at 37° C. with a combination of 2 mM CaCl, 5 μM of the Calcium ionophore A23187 and 5 mm of NEM. Cells were then washed twice with buffer B containing 0.1% of bovine serum albumin, and finally re-suspended in Buffer B containing 2 mM CaCl2 For examination of binding of DDC to the cells, DDC was dissolved in 0.1M NaPPi, pH=7.4, at a stock concentration of 1 mM. Binding assays were performed at a final concentration of 500 μM, and level of binding was evaluated by flow cytometry.

CN(C)c1cccc2c(S(=O)(=O)NC(CSSCC(NS(=O)(=O)c3cccc4c(N(C)C)cccc34)C(=O)O)C(=O)O)cccc12 (stereo not drawn) [DDC]
stained cells in culture ([1]; 0.5 mM BiCNU for 2 hr): marked increase in the number of the stained cells
stained cells in culture ([1]; control culture): small percentage of stained cells
fluorescence (DDC accumulation) of treated versus control cells [2]: marked shift of fluorescence
time to staining of apoptotic cells [3]: ≤ 40 s
staining of red blood cells with DDC ([4]; RBC activated by NEM, calcium ionophore A23187 and Ca2+): substantial shift to higher fluorescence levels
staining of red blood cells with DDC ([4]; intact RBC): did not stain significantly
